Experimental findings from paper PMC4138601 (Analytical and bioanalytical chemistry, 2012) are described below.

For experiment [1], the target named is T1, Sphingomyelinase from human placenta (human L-ASM) (Homo sapiens, UniProt P17405).
T1 sequence (P17405 47-631): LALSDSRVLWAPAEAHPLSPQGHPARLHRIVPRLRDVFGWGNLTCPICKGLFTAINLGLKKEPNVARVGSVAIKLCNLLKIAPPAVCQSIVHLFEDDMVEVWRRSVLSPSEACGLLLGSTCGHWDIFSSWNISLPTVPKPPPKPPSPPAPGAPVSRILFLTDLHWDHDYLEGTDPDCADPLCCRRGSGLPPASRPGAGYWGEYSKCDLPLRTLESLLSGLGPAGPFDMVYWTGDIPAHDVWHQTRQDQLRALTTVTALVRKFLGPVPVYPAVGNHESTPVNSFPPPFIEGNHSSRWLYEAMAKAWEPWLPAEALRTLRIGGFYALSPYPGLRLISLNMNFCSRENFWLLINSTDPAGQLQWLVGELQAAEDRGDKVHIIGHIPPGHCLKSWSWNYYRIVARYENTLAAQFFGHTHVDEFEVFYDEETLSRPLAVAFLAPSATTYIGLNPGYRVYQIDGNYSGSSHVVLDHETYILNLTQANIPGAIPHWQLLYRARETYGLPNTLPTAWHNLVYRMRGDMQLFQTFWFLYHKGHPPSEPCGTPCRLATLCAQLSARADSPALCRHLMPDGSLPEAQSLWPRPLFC
In words: SMase assay with natural substrate sphingomyelin. The class given is biochemical. Particulars: maximal inhibition; for Maximal resp., natural substrate (pH 5.0): pH 5.0 buffer; for Maximal resp., natural substrate (pH 6.5): pH 6.5 buffer.

The target in experiment [2] is T1, Sphingomyelinase from human placenta (human L-ASM). In words: SMase assay using HMU-PC profluorescence substrate. The class given is biochemical. Particulars: maximal inhibition, artificial substrate HMU-PC.

Regarding `O=c1c(O)c(-c2cccs2)oc2ccccc12` [MLS000097140], in experiment [1], the “Maximal resp., natural substrate (pH 5.0)” value is listed as 81.7% and the “Maximal resp., natural substrate (pH 6.5)” value is reported as 82.7%. Further, in experiment [2], the “Maximal resp., HMU-PC substrate (pH 5.0)” value was 6.2%.
The matching figures for `S=c1nc(C2CC2)[nH]c2ccccc12` [MLS000097294]: 103.2%, 104.4% and 99.1%.
The matching figures for `COC(=O)C1=C(C)N(Cc2ccc(C)cc2)C(=O)/C1=C\c1ccc(O)c(OC)c1` [MLS000574110]: 79.1%, 84.8% and 82.1%.
The matching figures for `O=S(=O)(Nc1ccc(N=Nc2ccc(O)c3ccccc23)cc1)c1ccccc1` [MLS000707545]: 72.0%, 77.2% and 93.4%.
For `O=C1CC(c2ccccc2)CC(=O)C1CS(=O)(=O)c1ccccc1` (stereo not drawn) [MLS000720877], in experiment [1], the “Maximal resp., natural substrate (pH 5.0)” value is 31.1% and the “Maximal resp., natural substrate (pH 6.5)” value turned out to be 61.6%. Also, the “Maximal resp., HMU-PC substrate (pH 5.0)” value in experiment [2] was found to be 99.2%.
In the same order, the values of `CCS(=O)(=O)C1=NN2C(=N)/C(=C\c3ccc(OC(=O)c4ccco4)cc3)C(=O)N=C2S1` [MLS000950682] are 43.4%, 71.2% and 79.0%.
The matching figures for `Clc1ccc(SCCOCCN2CCCCCC2)cc1.O=C(O)C(=O)O` [MLS001164567]: 97.8%, 100.7% and 15.8%.
In the same order, the values of `COc1cc(C(=O)Nc2scc(-c3ccc(Br)cc3)c2C(=O)O)cc(OC)c1OC` [MLS001164606] are 9.1%, 26.8% and 51.8%.
With `COc1ccc(C2=NN(C(=O)COC(=O)c3ccc(S(C)(=O)=O)c([N+](=O)[O-])c3)C(c3ccco3)C2)cc1` (stereo not drawn) [MLS002248315], in experiment [1], the “Maximal resp., natural substrate (pH 5.0)” value was 0.8% and the “Maximal resp., natural substrate (pH 6.5)” value is 8.6%. For the same compound, the “Maximal resp., HMU-PC substrate (pH 5.0)” value in experiment [2] is 31.4%.
